Test results as given in patent EP4681707A1, “METHOD FOR TREATING DISEASES BY USING REPARIXIN ALONE OR IN COMBINATION WITH ANTI-PD-1 ANTIBODY” (Shandong Cancer Hospital Affiliated to Shandong First …, priority 2023, dated 2024).

Key:
gastric cancer = details: treatment of gastric cancer; cited from earlier work
IL-1β = details: after MCAo in mice; cited from earlier work
NAFLD = test: Mouse NAFLD model induced by 60% high-fat feed, oil red staining and immunohistochemistry of liver (Example 6); assay type: in vivo; details: NAFLD mice, 30 mg/kg intraperitoneally once every 2 days
Procedure: Experimental methods: The "Western diet" (WD) was simulated with 60% high-fat feed, and the NAFLD model could be established within 12 weeks. After the establishment of the animal model, the mice were intraperitoneally injected once every 2 days at a dose of 30 mg/kg. Liver tissues of the mice were collected on days 12, 15, and 21 of administration, and oil red staining was performed on the liver tissues of each group.
(§1) Experimental grouping: The experimental groups were injected with reparixin, and the control group was injected with PBS.
(A) After NAFLD was established, raparixin was intraperitoneally injected once every two days; macroscopic views of representative liver tissues and oil red staining of liver sections in each group are shown, and the scale represents 50 µm. (B) Oil red staining positive area rate of NAFLD and 12-day treatment groups, n = 4. (C) Oil red staining positive area rate of NAFLD and 15-day treatment groups, n = 4. Statistical test: mean + SD, Student's t-test, * p < 0.05.
A: representative gross views of livers of mice in the NAFLD treatment group and untreated group, and oil red O staining and immunohistochemical staining on liver sections of the two groups of mice, with the scale bar being 100 µm; B-C: comparison of mean immunohistochemical staining densities of IL6 (B) and CXCR2 (C) in livers of NAFLD mice treated with reparixin for 21 days (mean ± SD, Student's t test).

[1] = 5 mg/kg subcutaneously once daily for 3 consecutive weeks; cited from earlier work
Luciferase-MC38 cells = test: Mouse CRC liver metastasis model by intra-splenic injection, reparixin alone (Example 4); assay type: in vivo, C57BL/6 mice; details: for liver weight / liver/body weight ratio: reparixin 30 mg/kg intraperitoneally every other day, day 12
Procedure: Experimental methods: Luciferase-MC38 cells were intrasplenically injected into C57BL/6 mice complicated by NAFLD or uncomplicated by NAFLD. Subsequently, reparixin (MCE, 30 mg/kg) or PBS was intraperitoneally injected every other day. On day 6 after tumor inoculation, the extent of liver metastasis was observed by imaging using an In vivo Imaging System (IVIS, PerkinElmer, Hopkinton, MA, USA). On day 12 after tumor inoculation, the mice were sacrificed under isoflurane anesthesia and soaked in alcohol for 30 min. Livers from each group of mice were prepared into single-cell suspensions, which were subjected to blocking, staining, incubation, and subsequent detection on the machine.
as §1
(A) Experimental treatment protocol: After Luciferase-MC38 cells were inoculated, PBS or reparixin was injected on days 3, 5, 7, 9, and 11, respectively, and the mice were sacrificed on day 12. (B) In vivo bioluminescence imaging of each group (CRLM group, CRLM + reparixin group, NAFLD + CRLM group, NAFLD + CRLM + reparixin group) on day 6 after tumor inoculation. (C) Representative gross anatomical views of livers of each group of mice (samples collected on day 12 after treatment); yellow arrows represent tumors. (D) Liver weight of each group of mice; n = 5-6.

## CC(C)Cc1ccc([C@@H](C)C(=O)NS(C)(=O)=O)cc1 [reparixin]
Gastric cancer
  overall survival (OS) rate: prolongs
  programmed death ligand 1 macrophages: reduction
IL-1β
  level of IL-1β in the brain: reduce
NAFLD; IL6 and CXCR2 staining after 21 days
  inflammation: reduce inflammation
NAFLD; days 12, 15, 21
  hepatocellular steatosis: significantly ameliorated
  lipid vacuoles: reduced
[1]
  blood flow: increased
  systolic blood pressure: effectively reduced
Luciferase-MC38 cells; CRLM animal model
  liver weight: decreased significantly
  liver/body weight ratio: decreased significantly
Luciferase-MC38 cells; NAFLD + CRLM animal model
  liver weight: decreased significantly
  liver/body weight ratio: decreased significantly
Luciferase-MC38 cells; especially in mice complicated by NAFLD, 30 mg/kg intraperitoneally
  liver metastasis burden: can reduce the liver metastasis burden
